Results taken from patent US9233237B2, “Apparatus and method for periodic fluid-delivery/fluid-removal cycles in the cranial subarachnoid space to treat cerebral cortical disorders” (NEW YORK UNIVERSITY, priority 2010, dated 2016).

Test system: monkey
Assay: EEG effects of drugs delivered through the implanted subdural/subarachnoid sheet body in a monkey
Type: in vivo
Conditions: acetylcholine-induced EEG seizure, delivery through the sheet body over right frontal cortex (FIG. 8)
Method: In this experiment, drugs with known pharmacological actions were delivered through the sheet body 102 to test whether the inlet and outlet ports 112, 114 were clogged or obstructed, with the effects of the administered drugs monitored via EEG electrode contacts 113 integrated into the sheet body 102. The experiment was performed in a monkey approximately three months after the implantation of the sheet body 102 over the animal's right frontal cortex and the implantation of the control unit 130. During this post-surgical period, the delivery fluid was saline. On the day of this experiment, the mini-pump was temporarily modified to deliver a seizure-inducing agent (acetylcholine) through the sheet body 102, followed by a delivery of an antiepileptic drug (muscimol) through the same route. Traces 1 to 3 of FIG. 6 represent EEG recordings obtained with the EEG electrodes integrated into the subarachnoid sheet (ipsilateral recording channels 1, 2 and 3). The fourth trace of FIG. 6 was obtained from a subdural/subarachnoid electrode placed, during device implantation, in the left-side frontal cortex (contralateral recording channel).

## NCc1cc(=O)[nH]o1 [muscimol]
  time to stop of EEG seizure after delivery: ≤ 2 min
